The term IC50 denotes the concentration that gives 50% inhibition. Higher therefore signals a need for much substance. Usually melting point stands for the temperature of the solid-liquid transition.

GST-MEK (p45MEK) and GST-MAPK (p44MAP kinase), sequence (Q02750 whole entry): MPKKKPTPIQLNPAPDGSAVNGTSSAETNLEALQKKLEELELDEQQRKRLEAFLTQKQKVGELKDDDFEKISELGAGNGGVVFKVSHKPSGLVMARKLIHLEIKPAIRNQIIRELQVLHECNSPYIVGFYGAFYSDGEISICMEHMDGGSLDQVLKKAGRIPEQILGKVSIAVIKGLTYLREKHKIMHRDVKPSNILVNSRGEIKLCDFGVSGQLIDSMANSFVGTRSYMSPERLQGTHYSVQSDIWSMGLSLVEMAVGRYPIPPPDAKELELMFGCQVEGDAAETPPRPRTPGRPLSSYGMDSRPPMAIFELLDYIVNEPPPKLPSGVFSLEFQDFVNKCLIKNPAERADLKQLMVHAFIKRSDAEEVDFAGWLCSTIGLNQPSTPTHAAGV

The first series has as its target GST-MEK (p45MEK) and GST-MAPK (p44MAP kinase) (Homo sapiens, UniProt Q02750). Nature of the series: Cascade assay for inhibitors of the MAP kinase pathway (In Vitro). Particulars: incorporation of 32P into myelin basic protein. Format: biochemical. How it is done:
Cascade Assay for Inhibitors of the MAP Kinase Pathway
Incorporation of ^32P into myelin basic protein (MBP) was assayed in the presence of a glutathione S-transferase fusion protein containing p44MAP kinase (GST-MAPK) and a glutathione S-transferase fusion protein containing p45MEK (GST-MEK). The assay solution contained 20 mM HEPES, pH 7.4, 10 mM MgCl2, 1 mM MnCl2, 1 mM EGTA, 50 μM [γ-^32P]ATP, 10 μg GST-MEK0.5 μg GST-MAPK and 40 μg MBP in a final volume of 100 μL. Reactions were stopped after 20 minutes by addition of trichloroacetic acid and filtered through a GF/C filter mat. ^32P retained on the filter mat was determined using a 1205 Betaplate. Compounds were assessed at 10 μM for ability to inhibit incorporation of ^32P.
To ascertain whether compounds were inhibiting GST-MEK or GST MAPK, two additional protocols were employed. In the first protocol, compounds were added to tubes containing GST-MEK, followed by addition of GST-MAPK, MBP and [γ-^32P]ATP. In the second protocol, compounds were added to tubes containing both GST-MEK and GST-MAPK, followed by MBP and [γ-^32P]ATP.
Compound `Cc1cc(I)ccc1Nc1ccc(Cl)cc1C(=O)NCCO` [Example 31, 5-Chloro-N-(2-hydroxyethl)-2-(4-iodo-2-methyl-phenylamino)-benzamide] displayed an IC50 of 226 nM.

For the compound `Cc1cc(I)ccc1Nc1ccc(Br)cc1C(=O)NCCO` [Example 42, 5-Bromo-N-(2-hydroxy-ethyl)-2-(4-iodo-2-methyl-phenylamino)-benzamide], the IC50 amounted to 920 nM.

Compound `Cc1cc(I)ccc1Nc1cc(F)ccc1C(=O)NCCCN1CCN(CCO)CC1` [Example 44, 4-Fluoro-N-{3-[4-(2-hydroxy-ethyl)-piperazin-1-yl]-propyl}-2-(4-iodo-2-methyl-phenylamino)-benzamide] returned a concentration for half-maximal inhibition (IC50) of 1481 nM.

For `CCN(CC)C(=O)c1cc([N+](=O)[O-])ccc1Nc1ccc(I)cc1C` [Example 45, N,N-Diethyl-2-(4-iodo-2-methyl-phenylamino)-5-nitro-benzamide], the IC50 amounted to 1755 nM.

In turn, `CCCCNC(=O)c1ccc(F)cc1Nc1ccc(I)cc1C` [Example 46, N-Butyl-4-fluoro-2-(4-iodo-2-methyl-phenylamino)-benzamide] returned a half-maximal inhibitory concentration (IC50) of 1814 nM.

On to `CCN(CC)C(=O)c1cc(Cl)ccc1Nc1ccc(I)cc1C` [Example 47, 5-Chloro-N,N-diethyl-2-(4-iodo-2-methyl-phenylamino)-benzamide], for which the half-inhibitory concentration (IC50) was 1911 nM.

In the case of `Cc1cc(I)ccc1Nc1ccc(Br)cc1C(=O)N(C)C` [Example 48], the 50% inhibitory concentration (IC50) was found to be 1945 nM.

The compound `Cc1cc(I)ccc1Nc1ccc([N+](=O)[O-])cc1CO` [Example 51, [2-(4-Iodo-2-methyl-phenylamino)-5-nitro-phenyl]-methanol] showed an IC50 of 887 nM.

In the case of `Cc1cc(I)ccc1Nc1ccc(Br)cc1CO` [Example 52, [5-Bromo-2-(4-iodo-2-methyl-phenylamino)-phenyl]-methanol], the half-maximal inhibitory concentration (IC50) turned out to be 2346 nM.

Turning to `Cc1cc(I)ccc1Nc1c(C(=O)NCC(O)CO)ccc(F)c1F` (centres unmarked) [Example 54, N-(2,3-Dihydroxy-propyl)-3,4-difluoro-2-(4-iodo-2-methyl-phenylamino)-benzamide], the concentration for half-maximal inhibition (IC50) worked out at 158 nM.

On to `Cc1cc(I)ccc1Nc1c(C(=O)NCCN2CCCCC2)cc(Br)c(F)c1F` [Example 55, 5-Bromo-3,4-difluoro-2-(4-iodo-2-methyl-phenylamino)-N-(2-piperidin-1-yl-ethyl)-benzamide], for which the IC50 is 114 nM.

`Cc1cc(I)ccc1Nc1cc(F)ccc1C(=O)NCC(O)CO` (centres unmarked) [Example 57, N-(2,3-Dihydroxy-propyl)-4-fluoro-2-(4-iodo-2-methyl-phenylamino)-benzamide]: the half-maximal inhibitory concentration (IC50) came to 399 nM.

`Cc1cc(I)ccc1Nc1ccc(F)cc1C(=O)NCCCN1CCN(CCO)CC1` [Example 90, 5-Fluoro-N-{3-[4-(2-hydroxy-ethyl)-piperazin-1-yl]-propyl}-2-(4-iodo-2-methyl-phenylamino)-benzamide] yielded an IC50 of 604 nM.

In the case of `Cc1cc(I)ccc1Nc1ccc([N+](=O)[O-])cc1C(=O)NCc1ccncc1` [Example 91, 2-(4-Iodo-2-methyl-phenylamino)-5-nitro-N-pyridin-4-yl methyl-benzamide], the 50% inhibitory concentration (IC50) was determined as 2071 nM.

As to `Cc1cc(I)ccc1Nc1ccc(Br)cc1C(=O)NCCCN1CCN(CCO)CC1` [Example 92, 5-Bromo-N-{3-[4-(2-hydroxy-ethyl)-piperazin-1-yl]-propyl}-2-(4-iodo-2-methyl-phenylamino)-benzamide], the IC50 turned out to be 253 nM.

`CCN(CC)CCNC(=O)c1cc(Cl)ccc1Nc1ccc(I)cc1C` [Example 93, 5-Chloro-N-(2-diethylamino-ethyl)-2-(4-iodo-2-methyl-phenylamino)-benzamide] had an IC50 of 521 nM.

For `Cc1cc(I)ccc1Nc1ccc([N+](=O)[O-])cc1C(=O)N1CCC(O)C1` (centres unmarked) [Example 95, (3-Hydroxy-pyrrolidin-1-yl)-[2-(4-iodo-2-methyl-phenylamino)-5-nitro-phenyl]-], the IC50 is 1001 nM.

As for `Cc1cc(I)ccc1Nc1ccc(Cl)cc1C(=O)NCCN1CCCC1` [Example 96, 5-Chloro-2-(4-iodo-2-methyl-phenylamino)-N-(2-pyrrolidin-1-yl-ethyl)-benzamide], the 50% inhibitory concentration (IC50) stood at 374 nM.

Turning to `Cc1cc(I)ccc1Nc1ccc(Br)cc1C(=O)N1CCC(O)C1` (centres unmarked) [Example 100, [5-Bromo-2-(4-iodo-2-methyl-phenylamino)-phenyl]-(3-hydroxy-pyrrolidin-1-yl)-], the IC50 was 1994 nM.

For `Cc1cc(I)ccc1Nc1ccc([N+](=O)[O-])cc1C(=O)NC1CCCCC1` [Example 184, N-Cyclohexyl-2-(4-iodo-2-methyl-phenylamino)-5-nitro-benzamide], the IC50 turned out to be 278 nM.

As for `Cc1cc(I)ccc1Nc1ccc(F)cc1C(=O)NOCc1ccccc1` [Example 186, N-Benzy1oxy-5-fluoro-2-(4-iodo-2-methyl-phenylamino)-benzamide], the IC50 was determined as 555 nM.

`Cc1cc(I)ccc1Nc1ccc(Cl)cc1C(=O)NCCO` [Example 187, 5-Chloro-N-(2-hydroxy-ethyl)-2-(4-iodo-2-methyl-phenylamino)-benzamide]: the IC50 turned out to be 561 nM.

The compound `Cc1cc(I)ccc1Nc1ccc(Br)cc1C(=O)NCCO` [Example 188, 5-Bromo-N-(2-hydroxy-ethyl)-2-(4-iodo-2-methyl-phenylamino)-benzamide] yielded an IC50 of 771 nM.

In the case of `Cc1cc(I)ccc1Nc1ccc([N+](=O)[O-])cc1C(=O)N(C)c1ccccc1` [Example 189, 2-(4-Iodo-2-methyl-phenylamino)-N-methyl-5-nitro-N-phenyl-benzamide], the IC50 amounted to 859 nM.

With `Cc1cc(I)ccc1Nc1ccc(Cl)cc1C(=O)N(C)c1ccccc1` [Example 190, 5-Chloro-2-(4-iodo-2-methyl-phenylamino)-N-methyl-N-phenyl-benzamide], the half-inhibitory concentration (IC50) is 921 nM.

`Cc1cc(I)ccc1Nc1ccc(I)cc1C(=O)NCCO` [Example 191, N-(2-Hydroxy-ethyl)-5-iodo-2-(4-iodo-2-methyl-phenylamino)-benzamide] yielded a half-inhibitory concentration (IC50) of 1355 nM.

`Cc1cc(I)ccc1Nc1ccc(Cl)cc1C(=O)NC1CC1` [Example 192, 5-Chloro-N-cyclopropyl-2-(4-iodo-2-methyl-phenylamino)-benzamide] registered an IC50 of 1797 nM.

Compound `C=CCNC(=O)c1cc(Cl)ccc1Nc1ccc(I)cc1C` [Example 193, N-Allyl-5-chloro-2-(4-iodo-2-methyl-phenylamino)-benzamide] registered an IC50 of 2902 nM.

In turn, `Cc1cc(I)ccc1Nc1ccc(F)cc1C(=O)N(C)c1ccccc1` [Example 194, 5-Fluoro-2-(4-iodo-2-methyl-phenylamino)-N-methyl-N-phenyl-benzamide] registered an IC50 of 4952 nM.

The compound `Cc1cc(I)ccc1Nc1ccc([N+](=O)[O-])cc1C(=O)NCCO` [Example 195, N-(2-Hydroxy-ethyl)-2-(4-iodo-2-methyl-phenylamino)-s-nitro-benzamide] showed a concentration for half-maximal inhibition (IC50) of 12800 nM.

In the case of `O=C(O)c1cc(Br)c(F)c(F)c1Nc1ccc(I)cc1Cl` [Example 220, 5-Bromo-2-(2-chloro-4-iodo-phenylamino)-3,4-difluoro-benzoic acid], the IC50 is 29 nM.

Tested on in a further series: not given
Assay: not given
Settings: not given
As to `Cc1cc(I)ccc1Nc1ccc(Cl)cc1C(=O)NCCO` [Example 31, 5-Chloro-N-(2-hydroxyethl)-2-(4-iodo-2-methyl-phenylamino)-benzamide], the melting point fell in the range of 120 to 121 °C.

(Values after patent US20020022647A1, “2-(4-bromo or 4-iodo phenylamino) benzoic acid derivatives” (priority 1997, published 2002).)
